This note sets out measurements from PubChem BioAssay AID179 (DTP/NCI, 2004).

This experiment concerns CEM cells HIV-1 protection, formazan growth assay. The experiment in a line: NCI AIDS Antiviral Assay. Conditions: for IC50: measured here: growth of uninfected CEM cells. The procedure, abridged: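 Steps: treat uninfected and HIV-1-infected human CEM cells at five drug levels; quantify growth by soluble formazan; retest any compound reaching 50% protection; classify actives from the retest.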

SMILES strings stand for the structures. Where “and” joins values, the source holds several entries; their conditions need not be identical. Equal entries are not always repeated. Calls of active or inactive are those of the source.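 Rule for the calls: active = compounds giving half or more protection of infected cells from virus-caused growth loss, again on retest; inactive = the rest.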 A value given as a limit tells only on which side of the number the result lay.

With `C=C[C@@]1(C)CCC2(O)C(CCC3C2(C)CCC[C@@]3(C)COC(=O)CC(=O)OC)C1` (some centres not stated), the EC50 is above 24.5 µM and the IC50 is above 24.5 µM. For the compound `COc1cc(CNC(=O)CCCCCCCCCCSSCCCCCCCCCCC(=O)NCc2ccc(O)c(OC)c2)ccc1O`, the EC50 is above 200 µM.

Turning to `O=C(Cc1ccccc1)NN1C(=O)C(Cl)C1c1ccccc1O` (configuration not stated), the EC50 is above 77.6 µM and the IC50 was determined as 24.5 µM. `COC(=O)/C(C#N)=C(\N)C(Cl)(Cl)Cl`: the result was inactive. As to `CN(c1ccc(Cl)cc1)S(=O)(=O)c1ccccc1[N+](=O)[O-]`, the EC50 is above 200 µM and the IC50 was 24.5 µM. With `Cc1ccc(/C=C2\CN(C)CC3C(c4ccc(C)cc4)=C(C#N)C(=O)NC23)cc1` (configuration not stated), the EC50 was above 200 µM and the 50% inhibitory concentration (IC50) was above 200 µM. `COc1ccc(NC(=O)C2C(=O)N(c3ccc(OC)cc3)C(=O)/C2=N\NC(N)=O)cc1` (configuration not stated): the EC50 is above 61.7 µM and the IC50 is above 61.7 µM. On to `Brc1ccc(C2CC3(c4ccccc4)ON=C(c4ccccc4)N3c3ccccc3S2)cc1` (configuration not stated), for which the EC50 was above 200 µM and the IC50 was 174 µM. Consider `O=C1/C(=C/c2cccs2)NC(=S)N1CN1CCOCC1`, for which the EC50 is above 200 µM and the IC50 was 34.7 µM. `O=C(O)CNCCCCCCNCC(=O)O`: the EC50 was above 631 µM and the IC50 turned out to be 617 µM. For `Cc1ccc(-c2n[nH]c(=O)n2/N=C\c2ccc([N+](=O)[O-])cc2)cc1`, the EC50 was above 200 µM and the half-maximal inhibitory concentration (IC50) stood at 58.9 µM. The corresponding values for `COC(=O)C(Cc1nc2ccc(Cl)cc2[nH]c1=O)/C(=N\N)C(=O)Nc1cc(C)c(Cl)cc1S(=O)(=O)O` (configuration not stated) are above 447 µM and 115 µM. As for `CNc1nc2cc(OC)c(OC)cc2c(=O)[nH]1`, the EC50 was above 200 µM and the IC50 was found to be 191 µM.

Take `CCOC(=O)C1=C(C)N(NC(=O)Nc2ccccc2)C2(N)N(NC(=O)Nc3ccccc3)C(C)=C(C(=O)OCC)C12C#N` (configuration not stated): the EC50 was above 31.6 µM and the IC50 was above 31.6 µM.

As for `COc1cc(-c2ccc(N=Nc3ccc4c(S(=O)(=O)O)cc(S(=O)(=O)O)c(N)c4c3O)c(OC)c2)ccc1N=Nc1ccc2c(S(=O)(=O)O)cc(S(=O)(=O)O)c(N)c2c1O`, the EC50 was 5.01 µM, the result was active and the IC50 is 49 µM. Regarding `COC(=O)C12CC(C3CC31)C1CC12` (configuration not stated), the EC50 was above 251 µM and the 50% inhibitory concentration (IC50) is above 251 µM.

`Cn1ccc(C(=O)NCCN(CCNC(=O)c2ccn(C)c(=O)c2O)CCNC(=O)c2cccc(=O)n2O)c(O)c1=O`: the EC50 was above 200 µM and the IC50 was above 200 µM.

Take `COc1ccc2cc1Oc1ccc(cc1)CC1c3cc4c(cc3CCN1C)Oc1c(OC)cc3c(c1O4)C(C2)N(C)CC3` (configuration not stated): the result was inactive.

Regarding `O=C1c2ccccc2CC1(Br)C(Br)c1ccccc1` (configuration not stated), the EC50 is above 200 µM; the IC50 was 10.7 µM and 10 µM. On to `O=c1c(O)c(O)c(=O)c(=O)c1=O`, for which the outcome was inactive. As for `C/C=C(/C)C(=O)O[C@H]1[C@H](O)CC(c2ccc3c(c2O)C(O)=C2C(=O)C4(OC)C(O)=C(C(N)=O)C(=O)[C@H](CC(=O)c5ccccc5O)C4CC2[C@@]3(C)OC)O[C@@H]1C` (some centres not stated), the EC50 is above 2 µM and the concentration for half-maximal inhibition (IC50) came to 0.000631 µM. Consider `Cn1c(=O)c2c(nc(N/N=C/c3cccc(Br)c3)n2C)n(C)c1=O`, for which the EC50 is above 200 µM and the IC50 was above 200 µM. In the case of `CN1C/C(=C\c2cccs2)C(=O)/C(=C/c2cccs2)C1`, the EC50 was above 200 µM and the 50% inhibitory concentration (IC50) amounted to 14.1 µM. Turning to `COc1ccc(CNc2cnc3ccc(N)cc3n2)cc1OC`, the EC50 is above 115 µM and the IC50 is above 115 µM.

In the case of `COC12CCC(C(C(=O)c3ccccc3)=C1C(=O)c1ccccc1)C(O)C2` (configuration not stated), the EC50 was above 501 µM and the IC50 was above 501 µM. As for `O=C(c1cccnc1)c1cc(-c2ccccn2)c(=O)n2ccccc12`, the EC50 is above 200 µM and the IC50 is above 200 µM. In the case of `COc1cc2c3c(c1OC)C(=O)C(=O)C1=C3N(CCC1)CC2`, the result was inactive. With `COC(=O)[C@@H]1CN(C(C)=O)C(=O)N1C(=O)OCc1ccccc1`, the EC50 is above 200 µM and the IC50 was above 200 µM. On to `CC1NOC(=O)C1N=Nc1ccc(Cl)cc1Cl` (configuration not stated), for which the EC50 is above 36.3 µM and the IC50 is above 36.3 µM. In the case of `CC[C@@]1(O)C(=O)OCc2c1cc1n(c2=O)Cc2cc3c(CN(C)C)c(O)ccc3nc2-1`, the outcome was inactive.

For the compound `O=[N+]([O-])c1ccc(C2=NOC(c3ccccc3)N2C23CC4CC(CC(C4)C2)C3)cc1` (configuration not stated), the EC50 was above 200 µM and the half-inhibitory concentration (IC50) was determined as 107 µM. The corresponding values for `CCN(CC)C1CS(=O)(=O)OC(c2ccccc2)=C1C` (configuration not stated) are above 316 µM and 22.4 µM. On the same counts, the results for `CN(CCn1cnc2c1c(=O)n(C)c(=O)n2C)C1CCCCC1` are above 200 µM and above 200 µM. In the case of `Cc1cn(C(C)OCCN(O)C(N)=O)c(=O)[nH]c1=O` (configuration not stated), the outcome was inactive.

With `CCC1CN(C(=O)c2ccccc2)C(Cc2c[nH]c3ccccc23)C(=O)C1CC(=O)OC` (configuration not stated), the EC50 was above 200 µM and the IC50 came to 79.4 µM. As for `CCOC(=O)c1nc2cc(F)cc(F)c2[nH]c1=O`, the EC50 is above 200 µM and the IC50 amounted to 162 µM. For the compound `CC(=O)NNc1nc(C)c(C(/C=C/c2ccc(NC(C)=O)cc2)=N/NS(=O)(=O)c2ccc(C)cc2)s1`, the EC50 was above 57.5 µM and the IC50 was above 57.5 µM. In the case of `CN1CCC23c4ccccc4NC1C21CCN(C)C3Nc2ccccc21`, the EC50 is above 724 µM and the IC50 turned out to be 617 µM.

Regarding `Nc1c(F)c(F)c2c(c1F)N(CCCCCl)c1ccccc1S2`, the EC50 is above 200 µM and the IC50 amounted to 21.9 µM. For the compound `CCOC(=O)c1c(N2CCCC2)ncn(C)c1=S`, the EC50 is above 200 µM and the concentration for half-maximal inhibition (IC50) is above 200 µM. For `O=C/C(=C(/Cl)c1ccc(O)cc1)c1ccccc1`, the EC50 was above 115 µM and the IC50 was determined as 49 µM. In the case of `C[N+](C)(C)CCOP(=O)(O)OP(=O)([O-])OCC1CCC(n2ccc(N)nc2=O)O1` (configuration not stated), the EC50 was 0.575 µM and 0.178 µM; the IC50 was above 200 µM. With `Cc1c(C(=O)c2ccccc2C(=O)O)c2ccccc2n1C`, the outcome was inactive. For the compound `N#CNC1=NC(N)C(c2nc3ccccc3[nH]2)=C(CCCC(=O)Nc2cccc([N+](=O)[O-])c2)N1` (configuration not stated), the EC50 was above 77.6 µM and the concentration for half-maximal inhibition (IC50) is above 77.6 µM. As for `C=CCN1CC2CN=NC2(C#N)C1` (configuration not stated), the EC50 was above 200 µM and the IC50 is above 200 µM. As to `CC1(c2ccccc2)CC(c2cccc([N+](=O)[O-])c2)=NO1` (configuration not stated), the outcome was inactive and the IC50 amounted to 43.7 µM. On to `O=C(Cc1nc2ccccc2o1)C(=O)Nc1cccc(C(F)(F)F)c1`, for which the result was inactive. Turning to `Cc1cc2c(c3oc(C4(C)OC4C4OC4C)cc(=O)c13)C(=O)c1c(O)c(C3CC(C)(N(C)C)C(O)C(C)O3)cc(C3CC(N(C)C)C(O)C(C)O3)c1C2=O` (configuration not stated), the EC50 was above 0.002 µM and the IC50 was found to be 9.55e-05 µM. The corresponding values for `C=C1C(=O)O[C@@H]2C=C(C)C3=CC(=O)[C@](C)(C[C@H](OC(=O)/C(C)=C\C)[C@@H]12)O3` are above 5.37 µM and 0.224 µM. Turning to `CN1CC[C@@H](c2c(O)cc(O)c3c(=O)cc(-c4ccccc4Cl)oc23)[C@@H](O)C1`, the EC50 was 0.01 µM and the 50% inhibitory concentration (IC50) was 0.0468 µM.
